Measured values: US20060189682A1, “Water soluble prodrugs of COX-2 inhibitors” (priority 2005, published 2006)
Like-named read-outs stand apart in the source and are kept apart here.

How the values were obtained:
[1] = Solubility in deionized water @ 25° C.; type: physicochemical
Protocol: (§1) The physiochemical properties of Examples 1-6 and their ability to behave as pro-drugs and release in vivo the parent drug (the desired COX-2 inhibitor 5(S)-ethyl-3-isopropoxy-4-(4-methanesulfonylphenyl)-5-methyl-5H-furan-2-one) were examined. […] To ascertain the rates of conversion of the pro-drugs in vivo, the compounds were dosed as a saline solution of the salt form (except for 1, which was dosed in a PEG-400 solution) in Sprague-Dawley rats at 2 mg/kg intravenously. Plasma levels were measured for levels of the respective pro-drug and the desired COX-2 inhibitor at 5, 15, 30, and 60 min time points. The plasma levels measured at 30 minutes are given below (Table 1).

[2] = Plasma levels of pro-drug and desired COX-2 inhibitor after i.v. dosing in Sprague-Dawley rats; type: in vivo; details: for Pharmacokinetic characteristics / In vivo conversion to parent drug in plasma / Levels of pro-drug in vivo: 2 mg/kg i.v.; for Pharmacokinetic characteristics / concentration at 30 min / In vivo conversion to parent drug in plasma: rat; for concentration at 30 min: iv, plasma, 2 mg/kg i.v. dose of pro-drug, Sprague-Dawley rats, value @ 30 min, read-out: Levels of Pro-Drug @ 0.5 hr; for In vivo conversion to parent drug in plasma: plasma at 30 min; for Levels of pro-drug in vivo: rat model
Protocol: as §1

[3] = Stability of 4 mg/mL solution in water, judged @ 24 hr by LC-MS/HPLC; type: physicochemical; details: after 24 hr in water, HPLC analysis
Protocol: as §1

[4] = background statement; cited from earlier work
infarct volume = details: MCAO stroke model; cited from earlier work
[5] = deionized water, 25 °C, water, read-out: Solubility
[6] = saline solution of the salt form

Row | solubility [1, 5] [mg/mL] | Pharmacokinetic characteristics [2] | Compound | In vivo conversion to parent drug in plasma [2] | further results
1 | > 10 | superior pharmacokinetic characteristics | CC[C@]1(C)OC2(OCC(COP(=O)([O-])OCC[N+](C)(C)C)O2)C(OC(C)C)=C1c1ccc(S(C)(=O)=O)cc1 (stereo in doubt) [Example 3, 2-{[({(2R,7S)-7-ethyl-9-isopropoxy-7-methyl-8-[4-(methylsulfonyl)phenyl]-1,4,6-trioxaspiro[4.4]non-8-en-2-yl}methoxy)(hydroxy)phosphoryl]oxy}-N,N,N-trimethylethanaminium] | – | solubility [1]: >20 mg/mL; concentration at 30 min [2, 6]: 0.2 µM
2 | < 1 | superior pharmacokinetic characteristics | CC[C@]1(C)OC2(OCC(CO)O2)C(OC(C)C)=C1c1ccc(S(C)(=O)=O)cc1 (stereo partly drawn) [Example 1, {(7S)-7-ethyl-9-isopropoxy-7-methyl-8-[4-(methylsulfonyl)phenyl]-1,4,6-trioxaspiro[4.4]non-8-en-2-yl}methanol] | converted to yield appreciable levels of the parent drug | solubility [1]: <1 mg/mL; concentration at 30 min ([2]; dosed in PEG-400 solution): 1.4 µM
3 | 2 | superior pharmacokinetic characteristics | CC[C@]1(C)OC2(OCC(COC(=O)CCC(=O)[O-])O2)C(OC(C)C)=C1c1ccc(S(C)(=O)=O)cc1.[Na+] (stereo partly drawn) [Example 2, Sodium 4-({(7S)-7-ethyl-9-isopropoxy-7-methyl-8-[4-(methylsulfonyl)phenyl]-1,4,6-trioxaspiro[4.4]non-8-en-2-yl}methoxy)-4-oxobutanoate] | converted to yield appreciable levels of the parent drug | concentration at 30 min [2, 6]: < 0.1 µM
4 | > 10 | – | CC[C@]1(C)O/C(=N\[C@@H](CO)C(=O)[O-])C(OC(C)C)=C1c1ccc(S(C)(=O)=O)cc1.[K+] [Example 4, N-[(5S)-5-ethyl-3-isopropoxy-5-methyl-4-[4-(methylsulfonyl)phenyl]furan-2(5H)-ylidene]-L-serine potassium salt] | failed to give appreciable amounts of the parent drug | solubility ([1]; potassium salt): >20 mg/mL; Levels of pro-drug in vivo [2]: dropped rapidly
5 | > 10 | superior pharmacokinetic characteristics | CC[C@@]1(C)OC2(OC[C@@H]([C@H]3OC(=O)C(O)=C3[O-])O2)C(OC(C)C)=C1c1ccc(S(C)(=O)=O)cc1.[Na+] (stereo partly drawn) [Example 5] | – | solubility ([1]; monosodium salt): >20 mg/mL; Stability in solution [3]: rapid decomposition
6 | > 10 | – | CC[C@]1(C)O/C(=N\OCC(=O)[O-])C(OC(C)C)=C1c1ccc(S(C)(=O)=O)cc1.[Na+] [Example 6, [[[(5S)-5-ethyl-5-methyl-3-(1-methylethoxy)-4-[4-(methylsulfonyl)phenyl]-2(5H)-furanylidene]amino]oxy]acetic acid sodium salt] | failed to give appreciable amounts of the parent drug | solubility ([1]; sodium salt): 10 mg/mL; Levels of pro-drug in vivo [2]: dropped rapidly
7 | – | – | CC[C@]1(C)OC(=O)C(OC(C)C)=C1c1ccc(S(C)(=O)=O)cc1 [parent drug, 5(S)-ethyl-3-isopropoxy-4-(4-methanesulfonylphenyl)-5-methyl-5H-furan-2-one] | – | Water solubility [4]: poor water solubility; Infarct volume (infarct volume): reduction in infarct volume
